Organism: Rattus norvegicus
Assay: DrugMatrix - Regimen: Daily Repeat
Type: toxicity, organism-based, Sprague-Dawley
Design: regimen Daily Repeat, gender Male, age 6-8 weeks
Conditions: in vivo, po, route oral GAVAGE, vehicle 100 % WATER; for ABSOLUTE BASOPHIL / ABSOLUTE EOSINOPHIL / ABSOLUTE LYMPHOCYTE / ABSOLUTE MONOCYTE / ABSOLUTE SEGMENTED NEUTROPHIL / BASOPHIL / EOSINOPHIL / ERYTHROCYTE COUNT / HEMATOCRIT / HEMOGLOBIN / LEUKOCYTE COUNT / LYMPHOCYTE / MEAN CORPUSCULAR HEMOGLOBIN / MEAN CORPUSCULAR HEMOGLOBIN CONCENTRATION / MEAN CORPUSCULAR VOLUME / MONOCYTE / NEUTROPHIL / NUCLEATED RED BLOOD CELLS / PLATELET COUNT: tissue Blood; for ALANINE AMINOTRANSFERASE / ALBUMIN / ALKALINE PHOSPHATASE / ASPARTATE AMINOTRANSFERASE / BLOOD UREA NITROGEN / CARBON DIOXIDE / CHLORIDE / CHOLESTEROL / CREATINE PHOSPHOKINASE / CREATININE / GLUCOSE / LACTATE DEHYDROGENASE / LIPASE / PHOSPHORUS / POTASSIUM / SODIUM / TOTAL BILIRUBIN / TOTAL PROTEIN / URIC ACID: tissue Plasma
[1] = 2 mg/kg, 120 h, dose level Low, time 5 day
[2] = 184 mg/kg, 72 h, dose level High, time 3 day
[3] = 184 mg/kg, 120 h, dose level High, time 5 day

C[C@]12C=CC(=O)C=C1CC[C@@H]1[C@@H]2[C@@H](O)C[C@@]2(C)[C@H]1CC[C@]2(O)C(=O)CO [PREDNISOLONE]
ABSOLUTE BASOPHIL [1]: 0 CELLS/uL | ABSOLUTE EOSINOPHIL [1]: 0 CELLS/uL | ABSOLUTE LYMPHOCYTE [1]: 11293 CELLS/uL | ABSOLUTE MONOCYTE [1]: 44.33 CELLS/uL | ABSOLUTE SEGMENTED NEUTROPHIL [1]: 929.33 CELLS/uL | BASOPHIL [1]: 0% | EOSINOPHIL [1]: 0% | ERYTHROCYTE COUNT [1]: 6.06 x10E6/uL | HEMATOCRIT [1]: 36.67% | HEMOGLOBIN [1]: 14.5 G/DL | LEUKOCYTE COUNT [1]: 12.27 x10E3/uL | LYMPHOCYTE [1]: 92.33% | MEAN CORPUSCULAR HEMOGLOBIN [1]: 23.9 pg | MEAN CORPUSCULAR HEMOGLOBIN CONCENTRATION [1]: 39.53 G/DL | MEAN CORPUSCULAR VOLUME [1]: 60.53 fL | MONOCYTE [1]: 0.33% | NEUTROPHIL [1]: 7.33% | NUCLEATED RED BLOOD CELLS [1]: 0.33 /100WBC | PLATELET COUNT [1]: 1186.33 x10E3/uL | ALANINE AMINOTRANSFERASE [1]: 41.33 u/L | ALBUMIN [1]: 4.37 G/DL | ALKALINE PHOSPHATASE [1]: 333.67 u/L | ASPARTATE AMINOTRANSFERASE [1]: 88.67 u/L | BLOOD UREA NITROGEN [1]: 16.33 mg/dL | CARBON DIOXIDE [1]: 26.67 mmol/L | CHLORIDE [1]: 101 MEQ/L | CHOLESTEROL [1]: 55.33 mg/dL | CREATINE PHOSPHOKINASE [1]: 433 u/L | CREATININE [1]: 0.17 mg/dL | GLUCOSE [1]: 143.33 mg/dL | LACTATE DEHYDROGENASE [1]: 390.33 u/L | LIPASE [1]: 9 u/L | PHOSPHORUS [1]: 10.87 mg/dL | POTASSIUM [1]: 5.88 MEQ/L | SODIUM [1]: 142.2 MEQ/L | TOTAL BILIRUBIN [1]: 0.23 mg/dL | TOTAL PROTEIN [1]: 6.1 G/DL | URIC ACID [1]: 1.87 mg/dL | ABSOLUTE BASOPHIL [2]: 0 CELLS/uL | ABSOLUTE EOSINOPHIL [2]: 0 CELLS/uL | ABSOLUTE LYMPHOCYTE [2]: 4216.33 CELLS/uL | ABSOLUTE MONOCYTE [2]: 85 CELLS/uL | ABSOLUTE SEGMENTED NEUTROPHIL [2]: 2332 CELLS/uL | BASOPHIL [2]: 0% | EOSINOPHIL [2]: 0% | ERYTHROCYTE COUNT [2]: 6.23 x10E6/uL | HEMATOCRIT [2]: 38.3% | HEMOGLOBIN [2]: 14.57 G/DL | LEUKOCYTE COUNT [2]: 6.63 x10E3/uL | LYMPHOCYTE [2]: 63.67% | MEAN CORPUSCULAR HEMOGLOBIN [2]: 23.4 pg | MEAN CORPUSCULAR HEMOGLOBIN CONCENTRATION [2]: 38.03 G/DL | MEAN CORPUSCULAR VOLUME [2]: 61.47 fL | MONOCYTE [2]: 1.33% | NEUTROPHIL [2]: 35% | NUCLEATED RED BLOOD CELLS [2]: 0 /100WBC | PLATELET COUNT [2]: 1200 x10E3/uL | ALANINE AMINOTRANSFERASE [2]: 57.33 u/L | ALBUMIN [2]: 5.07 G/DL | ALKALINE PHOSPHATASE [2]: 269.33 u/L | ASPARTATE AMINOTRANSFERASE [2]: 67 u/L | BLOOD UREA NITROGEN [2]: 18.67 mg/dL | CARBON DIOXIDE [2]: 25 mmol/L | CHLORIDE [2]: 99 MEQ/L | CHOLESTEROL [2]: 84.33 mg/dL | CREATINE PHOSPHOKINASE [2]: 258 u/L | CREATININE [2]: 0.22 mg/dL | GLUCOSE [2]: 170 mg/dL | LACTATE DEHYDROGENASE [2]: 120.33 u/L | LIPASE [2]: 12.33 u/L | PHOSPHORUS [2]: 11.57 mg/dL | POTASSIUM [2]: 5.92 MEQ/L | SODIUM [2]: 142.73 MEQ/L | TOTAL BILIRUBIN [2]: 0.17 mg/dL | TOTAL PROTEIN [2]: 7.07 G/DL | URIC ACID [2]: 2.57 mg/dL | ABSOLUTE BASOPHIL [3]: 0 CELLS/uL | ABSOLUTE EOSINOPHIL [3]: 20.33 CELLS/uL | ABSOLUTE LYMPHOCYTE [3]: 3939 CELLS/uL | ABSOLUTE MONOCYTE [3]: 40.67 CELLS/uL | ABSOLUTE SEGMENTED NEUTROPHIL [3]: 2333.33 CELLS/uL | BASOPHIL [3]: 0% | EOSINOPHIL [3]: 0.33% | ERYTHROCYTE COUNT [3]: 6.44 x10E6/uL | HEMATOCRIT [3]: 38.23% | HEMOGLOBIN [3]: 15.03 G/DL | LEUKOCYTE COUNT [3]: 6.33 x10E3/uL | LYMPHOCYTE [3]: 61.33% | MEAN CORPUSCULAR HEMOGLOBIN [3]: 23.4 pg | MEAN CORPUSCULAR HEMOGLOBIN CONCENTRATION [3]: 39.37 G/DL | MEAN CORPUSCULAR VOLUME [3]: 59.4 fL | MONOCYTE [3]: 0.67% | NEUTROPHIL [3]: 37.67% | NUCLEATED RED BLOOD CELLS [3]: 0.33 /100WBC | PLATELET COUNT [3]: 1142.33 x10E3/uL | ALANINE AMINOTRANSFERASE [3]: 78.33 u/L | ALBUMIN [3]: 5.07 G/DL | ALKALINE PHOSPHATASE [3]: 230.33 u/L | ASPARTATE AMINOTRANSFERASE [3]: 90.33 u/L | BLOOD UREA NITROGEN [3]: 18.67 mg/dL | CARBON DIOXIDE [3]: 23.33 mmol/L | CHLORIDE [3]: 100 MEQ/L | CHOLESTEROL [3]: 63.67 mg/dL | CREATINE PHOSPHOKINASE [3]: 788.33 u/L | CREATININE [3]: 0.21 mg/dL | GLUCOSE [3]: 184.67 mg/dL | LACTATE DEHYDROGENASE [3]: 177.67 u/L | LIPASE [3]: 11.67 u/L | PHOSPHORUS [3]: 10.9 mg/dL | POTASSIUM [3]: 5.41 MEQ/L | SODIUM [3]: 145.27 MEQ/L | TOTAL BILIRUBIN [3]: 0.23 mg/dL | TOTAL PROTEIN [3]: 6.93 G/DL | URIC ACID [3]: 1.27 mg/dL
